Experimental data from US6046331A, “Imidazolones and their use in treating benign prostatic hyperplasia and other disorders” (Synaptic Pharmaceutical Corporation, priority 1998, dated 2000).

The molecules below were run against T1, human α1d receptor (Homo sapiens, UniProt P25100) (assay: Radioligand binding ([^3 H]prazosin) at cloned human α1d receptor). Conditions: LM(tk-) cell membranes, read-out: hα1d Ki.
T1 construct: The entire coding region of α1d (1719 bp); expressed in transfected cells; host or cells: LM(tk-) mouse fibroblast line L-α1A (old nomenclature), ATCC CRL 11138
T1 sequence (P25100 1-572): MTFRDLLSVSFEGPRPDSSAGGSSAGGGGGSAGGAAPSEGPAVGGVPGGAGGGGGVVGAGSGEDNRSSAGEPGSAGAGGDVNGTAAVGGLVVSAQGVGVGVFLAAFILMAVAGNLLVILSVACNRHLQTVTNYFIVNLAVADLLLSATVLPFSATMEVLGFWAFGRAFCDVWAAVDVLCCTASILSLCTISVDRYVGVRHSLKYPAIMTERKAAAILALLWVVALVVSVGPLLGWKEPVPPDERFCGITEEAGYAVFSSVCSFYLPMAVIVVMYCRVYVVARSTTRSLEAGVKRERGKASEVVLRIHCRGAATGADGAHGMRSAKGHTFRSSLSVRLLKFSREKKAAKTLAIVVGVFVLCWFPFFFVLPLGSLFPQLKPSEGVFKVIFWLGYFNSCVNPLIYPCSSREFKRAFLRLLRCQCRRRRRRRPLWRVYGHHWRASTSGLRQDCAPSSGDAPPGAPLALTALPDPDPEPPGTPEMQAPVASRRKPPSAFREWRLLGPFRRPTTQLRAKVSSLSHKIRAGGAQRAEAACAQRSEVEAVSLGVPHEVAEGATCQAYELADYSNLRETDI
Protocol: Binding affinities were measured for selected compounds of the invention at six cloned human α1 and α2 receptor subtypes, as well as at the L-type calcium channel. The protocols for these experiments are given below.
The activity of compounds at the different human receptors was determined in vitro using cultured cell lines that selectively express the receptor of interest. These cell lines were prepared by transfecting the cloned cDNA or cloned genomic DNA or constructs containing both genomic DNA and cDNA encoding the human α-adrenergic receptors as follows:
α1d Human Adrenergic Receptor: The entire coding region of α1d (1719 bp), including 150 base pairs of 5' untranslated sequence (5' UT) and 300 bp of 3' untranslated sequence (3' UT), was cloned into the BamHI and ClaI sites of the polylinker-modified eukaryotic expression vector pCEXV-3, called EXJ.HR. The construct involved the ligation of partial overlapping human lymphocyte genomic and hippocampal cDNA clones: 5' sequence were contained on a 1.2 kb SmaI-XhoI genomic fragment (the vector-derived BamHI site was used for subcloning instead of the internal insert-derived SmaI site) and 3' sequences were contained on an 1.3 kb XhoI-ClaI cDNA fragment (the ClaI site was from the vector polylinker). Stable cell lines were obtained by cotransfection with the plasmid α1A/EXJ (expression vector containing the α1a receptor gene (old nomenclature)) and the plasmid pGCcos3neo (plasmid containing the aminoglycoside transferase gene) into LM(tk-) cells using calcium phosphate technique. The cells were grown, in a controlled environment (37° C., 5% CO2), as monolayers in Dulbecco's modified Eagle's Medium (GIBCO, Grand Island, N.Y.) containing 25 mM glucose and supplemented with 10% bovine calf serum, 100 units/ml penicillin g, and 100 μg/ml streptomycin sulfate. Stable clones were then selected for resistance to the antibiotic G-418 (1 mg/ml), and membranes were harvested and assayed for their ability to bind [^3 H]prazosin as described below (see "Radioligand Binding assays").
The cell line expressing the human α1d receptor used herein was designated L-α1A (old nomenclature) and was deposited with the American Type Culture Collection, 12301 Parklawn Drive, Rockville, Md. 20852, U.S.A. under the provisions of the Budapest Treaty for the International Recognition of the Deposit of Microorganisms for the Purposes of Patent Procedure. The cell line expressing the human α1d receptor, was accorded ATCC Accession No. CRL 11138, and was deposited on Sep. 25, 1992.
Radioligand Binding Assays for α1 receptors:
Transfected cells from culture flasks were scraped into 5 ml of 5 mM Tris-HCl, 5 mM EDTA, pH 7.5, and lysed by sonication. The cell lysates were centrifuged at 1000 rpm for 5 min at 4° C., and the supernatant was centrifuged at 30,000× g for 20 min at 4° C. The pellet was suspended in 50 mM Tris-HCl, 1 mM MgCl2, and 0.1% ascorbic acid at pH 7.5. Binding of the α1 antagonist [^3 H]prazosin (0.5 nM, specific activity 76.2 Ci/mmol) to membrane preparations of LM(tk-) cells was done in a final volume of 0.25 ml and incubated at 37° C. for 20 min. Nonspecific binding was determined in the presence of […] phentolamine. The reaction was stopped by filtration through GF/B filters using a cell harvester. Inhibition experiments, routinely consisting of 7 concentrations of the tested compounds, were analyzed using a non-linear regression curve-fitting computer program to obtain Ki values.
The compounds described above were assayed using cloned human alpha adrenergic receptors. […] The binding affinities of several compounds are illustrated in the following table.
Binding affinities of selected compounds of the present invention at cloned human α1d, α1b and α1a receptors. (h=human)

| Compound | Ki [nM] |
| --- | --- |
| COC(=O)c1[nH]c(=O)n(CCCCCN2CCC(C(=O)OC)(c3ccccc3)CC2)c1-c1ccc(F)c(F)c1 [Compound 1, 1-(5-(4-Methoxycarbonyl-4-phenylpiperidin-1-yl)pent-1-yl)-4-methoxycarbonyl-5-(3,4-difluorophenyl)-2,3-dihydro-2(1H)-imidazolone] | 329 |
| COC(=O)c1[nH]c(=O)n(CCCCCN2CCC(C#N)(c3ccccc3)CC2)c1-c1ccc(F)c(F)c1 [Compound 2, 5-(3,4-Difluorophenyl)-2,3-dihydro-4-methoxycarbonyl-1-(5-(4-cyano-4-phenylpiperidin-1-yl)pent-1-yl)-2(1H)-imidazolone] | 367 |
| COC(=O)c1[nH]c(=O)n(CCCCCN2CCC(O)(c3ccccc3)CC2)c1-c1ccc(F)c(F)c1 [Compound 3, 5-(3,4-Difluorophenyl)-2,3-dihydro-4-methoxycarbonyl-1-(5-(4-hydroxy-4-phenylpiperidin-1-yl)pent-1-yl)-2(1H)-imidazolone] | 2660 |
| COC(=O)c1[nH]c(=O)n(CCCCCN2CCN(c3ccccc3C(N)=O)CC2)c1-c1cc(F)c(F)c(F)c1 [Compound 4, 1-(5-(4-(2-Aminocarbonylphenyl)piperazin-1-yl)pent-1-yl)-5-(3,4,5-trifluorophenyl)-2,3-dihydro-4-methoxycarbonyl-2(1H)-imidazolone] | 279 |
| COC(=O)c1ccccc1N1CCN(CCCCCn2c(-c3cc(F)c(F)c(F)c3)c(C(=O)OC)[nH]c2=O)CC1 [Compound 5, 5-(3,4,5-Trifluorophenyl)-2,3-dihydro-4-methoxycarbonyl-1-(5-(4-(2-methoxycarbonylphenyl)piperazin-1-yl)pent-1-yl)-2(1H)-imidazolone] | 15.7 |
| CCOC(=O)c1[nH]c(=O)n(CCCCCN2CCN(c3ccccc3C(N)=O)CC2)c1-c1ccc(F)c(F)c1 [Compound 6, 1-(5-(4-(2-Aminocarbonylphenyl)piperazin-1-yl)pent-1-yl)-4-ethoxycarbonyl-5-(3,4-difluorophenyl)-2,3-dihydro-2(1H)-imidazolone] | 141 |
| COC(=O)c1[nH]c(=O)n(CCCCCN2CCN(c3ccccc3C(N)=O)CC2)c1-c1cc(F)c(F)cc1F [Compound 7, 1-(5-(4-(2-Aminocarbonylphenyl)piperazin-1-yl)pent-1-yl)-5-(2,4,5-trifluorophenyl)-2,3-dihydro-4-methoxylcarboxy-2(1H)-imidazolone] | 197 |
| COC(=O)c1[nH]c(=O)n(CCCCCN2CCC(C(=O)OC)(c3ccccc3)CC2)c1Cc1ccc(F)c(F)c1 [Compound 37, 5-(3,4-Difluorobenzyl)-2,3-dihydro-4-methoxycarbonyl-1-(5-(4-methoxycarbonyl-4-phenylpiperidin-1-yl)pent-1-yl)-2(1H) -imidazolone] | 513 |
